The values below are quoted from earlier work in patent US20200093949A1, “COMBINED ODOR ABSORPTION AND INSECT REPELLENT COMPOSITIONS, TREATMENTS, AND METHODS OF USE” (priority 2014, published 2020).

The data set relates to yellow fever mosquito. The note with it: compared with DEET.

In the case of `CCC(C)OC(=O)N1CCCCC1CCO` (stereo not shown) [Picaridin, 2-(2-hydroxyethyl)-1-piperidine carboxylic acid 1-methylpropyl ester], the “time of protection of guinea pigs from bites, post application” value is recorded as “longer times”.
